In ChEMBL document CHEMBL5370685, “Novel 1,8-Naphthalimide Derivatives As Antitumor Agents and Potent Demethylase Inhibitors” (ACS Med Chem Lett, 2023):
Active and inactive are the calls of the source. The rule behind the calls is not given here.

Legend:
[1] = Antiproliferative activity against human A549R cells assessed as inhibition of cell growth; assay type: functional, cell-based
[2] = Antiproliferative activity against mouse A261 cells assessed as inhibition of cell growth; assay type: functional, cell-based
NB-4 = test: Antiproliferative activity against human NB4 cells assessed as inhibition of cell growth; assay type: functional, cell-based
A549 [3] = test: Antiproliferative activity against human A549 cells assessed as inhibition of cell growth; assay type: functional, cell-based
[4] = biological target: T1, Alpha-ketoglutarate-dependent dioxygenase FTO (Homo sapiens, UniProt Q9C0B1); test: Inhibition of FTO in human A549 cells assessed as upregulation of gammaH2AX protein expression at 3 to 9 uM incubated for 24 hrs by Western blot analysis; assay type: cell-based; conditions: dose 3-9 µM
Target sequence in this assay (Q9C0B1 whole entry, looked up): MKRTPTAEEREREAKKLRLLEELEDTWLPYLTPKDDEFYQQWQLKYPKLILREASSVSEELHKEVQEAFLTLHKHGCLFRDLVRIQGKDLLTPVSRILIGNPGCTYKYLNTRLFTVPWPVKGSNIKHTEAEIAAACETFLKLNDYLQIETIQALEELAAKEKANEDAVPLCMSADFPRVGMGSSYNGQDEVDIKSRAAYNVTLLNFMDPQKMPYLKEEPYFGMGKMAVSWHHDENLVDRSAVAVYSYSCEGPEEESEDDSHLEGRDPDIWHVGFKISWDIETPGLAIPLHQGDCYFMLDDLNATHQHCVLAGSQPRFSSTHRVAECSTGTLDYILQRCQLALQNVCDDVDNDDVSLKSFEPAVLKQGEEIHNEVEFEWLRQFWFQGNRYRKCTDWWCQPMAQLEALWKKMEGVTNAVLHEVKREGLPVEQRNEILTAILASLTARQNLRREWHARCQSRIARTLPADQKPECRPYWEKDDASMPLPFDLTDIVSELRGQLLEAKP

A549 [5] = test: Antiproliferative activity against human A549 cells cultured as 3D spheroids assessed as decrease in multicellular tumor spheroid size at 20 uM treated for 5 days by live-cell phase-contrast microscopy; assay type: functional, cell-based; conditions: time 5.0 day
[6] = biological target: T1, Alpha-ketoglutarate-dependent dioxygenase FTO; test: Inhibition of human FTO assessed as reduction in enzyme-mediated demethylation of m6A-ssDNA incubated for 2 hrs by PAGE analysis
Target sequence in this assay (Q9C0B1 whole entry): as the sequence (Q9C0B1 whole entry, looked up) above

[7] = biological target: T1, Alpha-ketoglutarate-dependent dioxygenase FTO; test: Inhibition of FTO in human A549 cells assessed as upregulation of p53 protein expression incubated for 24 hrs by Western blot analysis; assay type: cell-based; conditions: dose 3-9 µM
Target sequence in this assay (Q9C0B1 whole entry, looked up): as above

A549 [8] = test: Induction of autophagy in human A549 cells assessed as upregulation of LC3-II protein expression at 3 to 9 uM incubated for 24 hrs by Western blot analysis; assay type: functional, cell-based; conditions: dose 3-9 µM
[9] = biological target: T1, Alpha-ketoglutarate-dependent dioxygenase FTO; test: Inhibition of human FTO assessed as reduction in enzyme-mediated demethylation of m6A-ssDNA at 12.5 uM incubated for 2 hrs by PAGE analysis
Target sequence in this assay (Q9C0B1 whole entry, looked up): as above

A549 [10] = test: Effect on FTO expression in human A549 cells at 3 to 9 uM incubated for 24 hrs by Western blot analysis; assay type: functional, cell-based; conditions: dose 3-9 µM
[11] = Cytotoxicity against HLF cells assessed as inhibition of cell growth; assay type: toxicity, cell-based; conditions: human
[12] = Selectivity index, ratio of IC50 for cytotoxicity against HLF cells to IC50 for antiproliferative activity against human A549 cells; assay type: cell-based; conditions: HLF cells versus A549 cells, read-out: Ratio IC50
A549 [13] = test: Induction of autophagy in human A549 cells assessed as downregulation of p62 protein expression at 3 to 9 uM incubated for 24 hrs by Western blot analysis; assay type: functional, cell-based; conditions: dose 3-9 µM

| SMILES | IC50 [1] [µM] | IC50 [2] [µM] | IC50 (NB-4) [µM] | IC50 (A549 [3]) [µM] | inhibition [4] | Activity (A549 [5]) | IC50 [6] [µM] | inhibition [7] | Activity (A549 [8]) | inhibition [9] | Activity (A549 [10]) | IC50 [11] [µM] | selectivity ratio [12] | Activity (A549 [13]) |
| --- | --- | --- | --- | --- | --- | --- | --- | --- | --- | --- | --- | --- | --- | --- |
| NCCN1C(=O)c2cccc3cc(NC(=O)c4ccccn4)cc(c23)C1=O | 7.3 | 4.1 | 8.4 | 5.2 |  |  |  |  |  |  |  |  |  |  |
| CNCCN1C(=O)c2cccc3cc(NC(=O)c4ccccn4)cc(c23)C1=O | 7.2 | 3.5 | 12.9 | 2.9 |  |  |  |  |  |  |  |  |  |  |
| CN(C)CCN1C(=O)c2cccc3cc(NC(=O)c4ccccn4)cc(c23)C1=O | 4.5 | 3.3 | 1.5 | 2.8 | Active | Active | 4.5 | Dose-Dependent Effect | Active | Active | inactive | 9.9 | 3.5 | Active |
| C=CC(=O)N(C)CCN1C(=O)c2cccc3cc(N)cc(c23)C1=O | > 20 | > 20 | > 20 | > 20 |  |  |  |  |  |  |  | > 20 |  |  |
| C#CCN(C)CCN1C(=O)c2cccc3cc(N)cc(c23)C1=O | > 20 | > 20 | > 20 | > 20 |  |  |  |  |  |  |  | > 20 |  |  |
| C#CCN(C)CCN1C(=O)c2cccc3cc(NC(=O)C=C)cc(c23)C1=O | > 20 | > 20 | 13.9 | > 20 |  |  |  |  |  |  |  | > 20 |  |  |
| C#CCN(C)CCN1C(=O)c2cccc3cc([N+](=O)[O-])cc(c23)C1=O | > 20 | > 20 | > 20 | > 20 |  |  |  |  |  |  |  | > 20 |  |  |
| C#CCCCCNCCN1C(=O)c2cccc3cc(NC(=O)c4ccccn4)cc(c23)C1=O | 9.5 | 5.3 | 9.8 | 4.7 |  |  |  |  |  |  |  |  |  |  |
| CNCCN1C(=O)c2cccc3cc([N+](=O)[O-])cc(c23)C1=O | 6.2 | 2.5 | 7 | 2.8 | Active | Active | 5.7 | Dose-Dependent Effect | Active | Active | inactive | 6.9 | 2.5 | Active |
| CN(C)CCN1C(=O)c2cccc3cc([N+](=O)[O-])cc(c23)C1=O [MITONAFIDE] | 1.8 | 2.8 | 3.4 | 1.5 |  |  | 34.8 |  |  |  |  | 2.8 | 1.9 |  |
| CN(C)CCN1C(=O)c2cccc3cc(N)cc(c23)C1=O [AMONAFIDE] | 9.5 | 9.2 | 5.7 | 4.3 |  |  |  |  |  |  |  | 8.8 |  |  |
| O=C(Nc1cc2c3c(cccc3c1)C(=O)N(CCN1C(=O)C=CC1=O)C2=O)c1ccccn1 | > 20 | > 20 | > 20 | > 20 |  |  |  |  |  |  |  |  |  |  |
| C=CC(=O)N(C)CCN1C(=O)c2cccc3cc([N+](=O)[O-])cc(c23)C1=O | > 20 | > 20 | > 20 | > 20 |  |  |  |  |  |  |  | > 20 |  |  |
| C#CCCC1(CCNCCN2C(=O)c3cccc4cc(NC(=O)c5ccccn5)cc(c34)C2=O)N=N1 | > 20 | 8.5 | 10.6 | > 20 |  |  |  |  |  |  |  |  |  |  |
